Measured values as given in patent US5908868A, “Retinol derivatives useful for enhancing immune response” (priority 1995, dated 1999).
Entries after “also recorded” stand apart in the source; their conditions may differ.

What was measured:
thymocytes = test: Proliferation of anti-CD3e activated thymocytes in serum-free medium; assay type: cell-based, BALB/c mouse; settings: for proliferative response: anti-CD3, retinol 3×10^-6 M or 14HRR 6×10^-7 M; for growth over a four day period: retinol 3×10^-6 M, 14HRR 6×10^-7 M, human serum 3%
Experimental: FIG. 14A: Purified BALB/c thymocytes were activated with immobilized anti-CD3e antibody and cultivated for four days in ITLB medium with or without retinol (3×10^-6 M), 14HRR (6×10^-7 M) (fresh 14HRR was added every 12 hours), human serum (3%) or FCS (10%) at the cellular densities shown. Proliferation was assayed by tritiated thymidine incorporation into cellular DNA. The SDs were below 20%.
FIG. 14B: BALB/c thymocytes (10^6 /ml) were added to microtiter plates coated with titrated amounts of anti-CD3e antibody with […] retinol or without, as indicated. Proliferation was measured in hexaduplicate wells on day 3 by ^3 H thymidine incorporation assay.
FIG. 14C: BALB/c thymocytes (3×10^6 /ml) were activated with anti-CD3e mAb as FIG. 1A. The total number of viable cells was determined by counting trypan blue-excluding cells, and those of blast cells by counting viable large cells in six replicate wells. Because of the relatively low cell density required in the culture (see FIG. 14A), the numbers reported for blast cells are best estimates.
Purified thymocytes (5×10^5 cells/well) were stimulated by TCR crosslinking with immobilized anti-CD3e antibody (FIG. 15A) or 0.4 μg/ml Con A (FIG. 15B) in serum-free ITLB medium. The indicated amounts of retinoids were added either once at the beginning of the experiment (marked as "1x") or every 12 hours thereafter (marked as "6x"). DNA synthesis was measured after 72 hours by tritiated thymidine uptake as described.
Purified thymocytes (10^5 cells/well) were activated with anti-CD3 antibody in ITLB medium with or without retinol (3×10^-6 M), 14HRR (6×10^-7, added every 12 hours or human serum (3%)). DNA synthesis was measured daily by a 4 hour pulse of tritiated thymidine. SDs were ≤12%.
Thymocytes (5×10^4 /well) were activated by immobilized anti-CD3 mAb in medium ITLB. Retinol (2×10^-6 M) was added at initiation of culture, or delayed by 12 hours and 24 hours, respectively, or omitted altogether. ^3 H thymidine pulses of 4 hours were used to measure DNA synthesis of hexaduplicate wells. (SDs were 20% or less.)
Thymuses of 3 to 6-week-old BALB/c mice were teased in serum-free RPMI medium supplemented with 1% BSA, 10^-6 M linoleic acid and antibiotics. Depletion of accessory cells was achieved by two cycles of complement-dependent lysis with a mixture of anti-IA^d (5 μg/ml) and anti-Itd (1:500 diluted ascites fluid). Briefly, cells were incubated on ice for 30 minutes with Ia antibodies, spun down, resuspended in 1:40 diluted rabbit complement, and incubated at 37° C. for 45 minutes. Incubations and two subsequent washes were carried out with RPMI medium containing 1% BSA. Cell viability was evaluated by trypan blue dye exclusion. To determine the extent of depletion of accessory cells, samples were stained with FITC-conjugated anti-Fc receptor antibody and analyzed by flow cytometry on a FACScan instrument (Becton Dickinson). No FcR-bearing cells were detected by this procedure.
Cells were cultured in serum-free medium, referred to as ITLB, containing RPMI 1640 supplemented with 8×10^-7 M insulin (5 μg/ml), 7×10^-8 M transferrin (5 μg/ml), 2×10^-6 M linoleic acid, 2×10^-6 M delipidated BSA (0.12 mg/ml), 2 mM L-glutamine, 1 mM sodium pyruvate and antibiotics. They were seeded into 96-well flat-bottom plates at varying cellular densities in a final volume of 100 μl. In control experiments, cells were cultured in medium containing 10% FCS or 3% human serum and 5×10^-5 M 2 ME. T cells and thymocytes were activated with immobilized, purified anti-mab CD3e or by the addition of Con A in the presence or absence of different concentrations of retinoids. Unless indicated otherwise, retinoids were replenished every 12 hours to maintain a reasonably constant concentration of these labile compounds in culture. […]

5/2 cells = test: Growth (DNA synthesis, [3H]thymidine) of lymphoblastoid 5/2 cells in serum-free medium; assay type: cell-based, human; settings: for restoration of capacity to proliferate: ITLB medium without retinol
Experimental: Washed 5/2 cells (5,000/well) were incubated for 72 hours in HB101 medium with the indicated amounts of retinoids. DNA synthesis was measured by [^3 H] thymidine uptake. The measurements were done in triplicate. The SDs were <15%.
In FIGS. 4B to 4D, 5/2 cells were washed twice and seeded at a concentration of 150,000 cells/ml in HB 101 medium. Triplicate samples of 100 μl of cell suspension were removed daily and pulsed for 6 hours with [^3 H] thymidine. Means are shown. The SDs were never >20%.
P3 was purified as described in the Experimental Details section. 5/2 cells (5,000/well) were incubated for 72 hours in HB101 medium and refed with the indicated amount of retinoid daily. DNA synthesis was measured by [^3 H]-thymidine uptake. P3 is bioactive down to a concentration of 10-^8 M (FIG. 8). […] This is due either to chemical instability or to a more rapid metabolic degradation of P3 by the cells.
The assay was done in 96-well microtiter plates in a final volume of 200 ul/well. The cells were cultured for 72 hours and cell growth determined by [^3 H] thymidine (0.8 μCi/well)labeling for the last 16 hours. Retinoids were added at the indicated concentrations at the initiation of culture and every 24 hours thereafter.
The human EBV-transformed B-cell line 5/2 was established from the peripheral blood of a healthy donor. The cell line was grown in RPMI 1640 supplemented with 8% fetal calf serum, L-glutamine (2 mM), and antibiotics. The cell line was tested regularly for mycoplasma infections and was consistently negative.
The assay system is a modification of the assay developed by Blazar et al. (12). […] Assays were done in 96 well microtiter plates in a final volume of 200 μl/well or in 25 cm^2 tissue culture flasks. The cells in the microtiter plates were cultured for 72 hours and cell growth was determined by labeling for the last 16 hours with 0.8 μCi/well of [^3 H]thymidine (sp. act. 6.7 Ci/mmol). Growth in the culture flasks was determined in three aliquots of 100 μl taken at 24 hours intervals and cultured in the presence of 0.8 μCi of [^3 H]thymidine for an additional 6 hour period. To determine the viable cell number, nine aliquots per time point were differentially counted in a Neubauer chamber in the presence of trypan blue.
5/2 cells were grown in the absence of retinol in a medium containing the basic RPMI 1640 amino acid/salt mixture, insulin (5 μg/ml), transferrin (5 μg/ml), albumin (0.1%) and linoleic acid (10^-6 M) (ITLB). […] The dose-response curve shown in FIG. 26 indicates an effective concentration of 10^-7 M.

`CC(C=CC=C(C)C(O)CO)=CC=C1C(C)=CCCC1(C)C` (stereo not drawn) [14HRR, 14-hydroxy-4,14-retro-retinol] was tested, and the proliferative response (thymocytes) was “vigorous responses were elicited”, the “potency relative to retinol in supporting T cell proliferation” value (thymocytes; provided at 12 hour intervals) was “as potent as retinol” and the “growth over a four day period” value (thymocytes) was “exponential growth”. For the same molecule, the “effect of a single addition at initiation of culture” value (thymocytes; single addition) was “ineffective; also recorded: does not enable sustained proliferation; also recorded: insufficient to drive T cell proliferation”, the “support of 5/2 cell growth” value (5/2 cells; HB101 medium) was “active and capable of replacing retinol” and the minimal effective concentration (5/2 cells; Homo sapiens, 72 h, HB101 medium, refed daily, read-out: bioactive down to a concentration) was 0.01 µM. For the same molecule, the “restoration of capacity to proliferate” value (5/2 cells) was “restores the capacity to proliferate” and the “need to replenish cultures” value (5/2 cells; chemical instability or more rapid metabolic degradation) was “cultures have to be replenished daily”.

`CC1=C(/C=C/C(C)=C/C=C/C(C)=C/CO)C(C)(C)CCC1` [retinol, all-trans retinol] was tested, and the proliferative response (thymocytes) was “vigorous responses were elicited”, the “response when supplied together with activation signal” value (thymocytes; no delay) was “highest responses” and the “reduction of sufficient retinol concentration on repeated feeding” value (thymocytes; replenished twice daily, 3-day culture) was “five- to ten-fold lower”. For the same molecule, the “growth over a four day period” value (thymocytes) was “exponential growth”, the viability (thymocytes; retinol by itself) was “maintain a higher state of viability than anti-CD3e "only" stimulation, or omission of test reagents altogether” and the “effect of 12-hour delay in addition” value (thymocytes; retinol delayed 12 hours) was “stagnation”. The “effect of delayed addition” value (thymocytes; retinol delayed by 24 hours) was “complete failure of activation”, the T cell activation (thymocytes; retinol on its own) was “no discernible T cell activation” and the “support of 5/2 cell growth” value (5/2 cells; HB101 medium) was “enable 5/2 cells to grow”. For the same molecule, the “restoration of capacity to proliferate” value (5/2 cells) was “restores the capacity to proliferate”.
